Data: patent EP2839831A1, “Modulators of the unconventional secretory pathway for use in the treatment of Alexander disease” (Rheinische Friedrich-Wilhelms-Universität Bonn, priority 2013, dated 2015)

Test system: secretion of endogenous insulin-degrading enzyme (IDE)
Assay: Secretion assay: effect of lovastatin on IDE secretion in COS-7 cells transfected with GFAP-ΔEx4 (Western immunoblot, ratio of IDE in medium to IDE in lysates)
Type: cell-based, monkey
Details: Primates, 5 µM lovastatin for 15 hours, 36 hours post transfection, versus DMSO vehicle, read-out: increase of IDE secretion (ratio of IDE in the medium to IDE in the lysates) compared to GFAP-ΔEx4
Method: COS-7 cells, a fibroblast-like cell line from monkey kidney tissue (ATCC, USA), were cultured in Dulbecco's Modified Eagle Medium (DMEM) (Life Technologies) containing 10% Fetal calf serum (FCS) (Life Technologies) and 1% Penicillin/Streptomycin (PS) (Life Technologies) (DMEM +/+) and splitted into new dishes (Coming). For all experiments cells were counted by using a Neubauer counting chamber. To estimate cell number (cells/ml), the average number from four big squares of the Neubauer chamber was multiplied by 10'000 and the cell suspension was diluted to the desired cell concentration. […]
The effect of statins on the secretion of IDE disturbed by Alexander disease-causing mutation in the 2A rod region of GFAP was determined by cell transfection and pharmacological treatment in COS-7 cells.
Cells were seeded in 6 well plates day before the transfection to a 50% confluence in DMEM medium supplemented with 10% FCS/1% PS. […] Proteins were separated by sodium dodecyl sulfate-polyacrylamide gel electrophoresis (SDS-PAGE), transferred to nitrocellulose membranes (Whatman), and detected by Western immunoblotting using enhanced chemiluminescence detection (ChemiDoc XRS, Bio-Rad). Signals were quantified with Quantity One Software (Bio-Rad).

CC[C@H](C)C(=O)O[C@H]1C[C@@H](C)C=C2C=C[C@H](C)[C@H](CC[C@@H]3C[C@@H](O)CC(=O)O3)[C@H]21 [lovastatin, [(1S,3R,7S,8S,8aR)-8-[2-[(2R,4R)-4-hydroxy-6-oxooxan-2-yl]ethyl]-3,7-dimethyl-1,2,3,7,8,8a-hexahydronaphthalen-1-yl] (2S)-2-methylbutanoate]
activation at 5 µM: ~100%
